Reference: PMC5618426, “APETx4, a Novel Sea Anemone Toxin and a Modulator of the Cancer-Relevant Potassium Channel KV10.1” (Marine Drugs, 2017)
Values joined by “and” are separate entries in the source; they are usually repeats but may differ in a detail not shown here. Equal entries are not always repeated. Where two headings read alike, the source gives them in different places. Positions of bridges follow the written chain, without caps; N, C: chain ends. No end group written: not given here.

How the values were obtained:
hKV10.1a (hEag1) = hKV10.1a (hEag1) (Homo sapiens, UniProt O95259); test: two-electrode voltage clamp, KV10.1 in Xenopus laevis oocytes; type: cell-based
Method: For the expression of the ion channels (rNaV1.4, hNaV1.5, mNaV1.6, hKV1.1, rKV1.3, hKV1.4, hKV1.5, hKV2.1, hKV10.1a and hKV11.1,) in Xenopus oocytes, the plasmids were linearized and subsequently transcribed using the T7 or SP6 mMESSAGE-mMACHINE transcription kit (Ambion®, Carlsbad, CA, USA).
Stage V-VI Xenopus laevis oocytes were isolated by partial ovariectomy. The animals were anesthetized by a 15 min submersion in 0.1% tricaine methane sulfonate (pH 7.0). Isolated oocytes were defolliculated with 2 mg/mL collagenase.
Defolliculated oocytes were injected with 50 nL of cRNA at a concentration of 1 ng/nL using a micro-injector (Drummond Scientific®, Broomall, PA, USA). The oocytes were incubated in a solution containing (in mM): NaCl, 96; KCl, 2; CaCl2, 1.8; MgCl2, 2 and HEPES, 5 (pH 7.4), supplemented with 50 mg/L gentamycin sulfate.
Two-electrode voltage-clamp recordings were performed at room temperature (18–22 °C) using an Geneclamp 500B Voltage and Patch Clamp Amplifier (Axon Instruments, Union City, CA, USA, controlled by a Axon Digidata 1550 Low-Noise Data Acquisition System (Axon Instruments). Whole cell currents from oocytes were recorded 1–4 days after injection. The normal bath solution (ND96) composition was (in mM): NaCl, 96; KCl, 2; CaCl2, 1.8; MgCl2, 2 and HEPES, 5 (pH 7.4). The high potassium solution (HK) composition was in mM): NaCl, 2; KCl, 96; CaCl2, 1.8; MgCl2, 2 and HEPES, 5 (pH 7.4). Voltage and current electrodes were filled with 3 M KCl. Resistances of both electrodes were kept between 0.5 and 1.5 MΩ. The elicited KV1.x end KV2.1 currents were filtered at 500 Hz and sampled at 2 kHz, KV10.1 currents were filtered at 1 kHz and sampled at 2 kHz, hERG currents were filtered at 1 kHz and sampled at 10 kHz and the sodium currents were filtered at 2 kHz and sampled at 20 kHz using a four-pole low-pass Bessel filter. Leak subtraction was performed using a -P/4 protocol.
KV10.1 currents were evoked by 2 s depolarizing pulses to 0 mV from a holding potential of −90 mV. KV11.1 (hERG) peak and tail currents were generated by a 2.5 s prepulse from −90 mV to 40 mV followed by a 2.5 s pulse to −120 mV. KV1.x channel currents were evoked by 500 ms depolarizations to 0 mV from a holding potential of −90 mV followed by a 500 ms pulse to −50 mV. KV2.1 currents were elicited by 500 ms pulses to +20 mV from a holding potential of −90 mV. NaV currents were evoked by a 100 ms depolarizations to 0 mV from the holding potential.
[…]. The curve was fitted with the logistic dose-response equation, y = A1−A2/1+ (IC50/[toxin])^nH + A2 where y represents the percentage of current inhibition, A1 the initial inhibition at the lowest toxin concentration (0%), A2 the final inhibition at the highest toxin concentration, IC50 the half maximal inhibitory toxin concentration and ^nH the Hill coefficient.
The voltage-dependent activation of the KV10.1 channels was investigated by 1000 ms activating steps from the holding potential −90 mV to 65 mV with 5 mV increments. The normalized current amplitudes were plotted against the corresponding pulse potentials and fitted with the Boltzmann equation, y = A1−A2/1+ e^(V−V1/2)/k + A2, where y represents the normalized current (I/Imax), A1 is the initial y-value(-∞) and A2 is the final y-value, Imax is the maximal current, V is the test voltage, V1/2 is the half-maximal voltage and k is the slope factor.
The voltage-dependent inactivation of KV10.1 channels was studied by 1.5 s prepulses from the holding potential ranging from −140 mV to 30 mV with 10 mV steps. These pulses were followed by a 0.5 s test pulse to 30 mV [17]. The normalized peak current amplitudes (I2/I2,max) measured during the test pulse and were plotted against the prepulses and fitted with the Boltzmann equation.
All electrophysiological data are presented as means ± S.E.M of n ≥ 3 independent experiments unless otherwise indicated. […]

MDA-MB-435S = test: proliferation (IncuCyte confluency); type: cell-based, human; settings: cell confluency (%) over time, n = 4 wells
Method: (§1) The cell proliferation was quantified in terms of cell confluency (%) over time; data points were collected every hour. […] LNCaP, it is presumed that the observed effect cannot only be attributed to KV10.1 inhibition (Figure S5).
(§2) Cell lines SH-SY5Y (ACC 209), LNCaP (ACC 256) and NIH-3T3 (ACC 59) were purchased from DSMZ (Germany). MDA-MB-435S (HTB 129) and hTERT RPE-1 (CRL 4000) were obtained from ATCC (USA). Cell lines were cultured in their recommended media supplemented with 10% or 15% FCS (PAA laboratories, Cölbe, Germany) at 37 °C in humidified 5% CO2 atmosphere. All media were purchased from ThermoFisher Scientific (Waltham, MA, USA).
(§3) Cell proliferation, cytotoxicity and apoptosis were assessed in a 96-well microtiter plate by live-cell imaging using an IncuCyte Zoom System (Essen BioScience, Welwyn Garden City, UK). Cell proliferation was monitored in terms of cell confluency (%). Cell cytotoxicity was assessed by the CellTox Green Dye assay (Promega, Madison, WI, USA). The IncuCyte Caspase-3/7 apoptosis assay (Essen BioScience, UK) was used to evaluate the effect of APETx4 on the apoptotic pathway.
(§4) Live-cell imaging data were collected from the IncuCyte Zoom software and analyzed using GraphPad Prism 6 software. Proliferation was measured as Phase Object Confluence (%), cytotoxicity and apoptosis were measured as Green Object Count (1/mm²). Data points were collected every hour. In order to improve the clarity of the graphs, only the data points for every 5 h are shown. All data are represented as mean ± S.E.M of n = 4 different wells.

SH-SY5Y = test: proliferation (IncuCyte confluency); type: cell-based, human; settings: cell confluency (%) over time, n = 4 wells
Method: as §1, §2, §3, §4

hTERT RPE-1 = test: proliferation (IncuCyte confluency); type: cell-based, human; settings: cell confluency (%) over time, n = 4 wells
Method: as §1, §2, §3, §4

[1] = concentration-response curve, logistic fit

hKV10.1a (hEag1), sequence (O95259 other isoform, or with tags, fused parts or gaps): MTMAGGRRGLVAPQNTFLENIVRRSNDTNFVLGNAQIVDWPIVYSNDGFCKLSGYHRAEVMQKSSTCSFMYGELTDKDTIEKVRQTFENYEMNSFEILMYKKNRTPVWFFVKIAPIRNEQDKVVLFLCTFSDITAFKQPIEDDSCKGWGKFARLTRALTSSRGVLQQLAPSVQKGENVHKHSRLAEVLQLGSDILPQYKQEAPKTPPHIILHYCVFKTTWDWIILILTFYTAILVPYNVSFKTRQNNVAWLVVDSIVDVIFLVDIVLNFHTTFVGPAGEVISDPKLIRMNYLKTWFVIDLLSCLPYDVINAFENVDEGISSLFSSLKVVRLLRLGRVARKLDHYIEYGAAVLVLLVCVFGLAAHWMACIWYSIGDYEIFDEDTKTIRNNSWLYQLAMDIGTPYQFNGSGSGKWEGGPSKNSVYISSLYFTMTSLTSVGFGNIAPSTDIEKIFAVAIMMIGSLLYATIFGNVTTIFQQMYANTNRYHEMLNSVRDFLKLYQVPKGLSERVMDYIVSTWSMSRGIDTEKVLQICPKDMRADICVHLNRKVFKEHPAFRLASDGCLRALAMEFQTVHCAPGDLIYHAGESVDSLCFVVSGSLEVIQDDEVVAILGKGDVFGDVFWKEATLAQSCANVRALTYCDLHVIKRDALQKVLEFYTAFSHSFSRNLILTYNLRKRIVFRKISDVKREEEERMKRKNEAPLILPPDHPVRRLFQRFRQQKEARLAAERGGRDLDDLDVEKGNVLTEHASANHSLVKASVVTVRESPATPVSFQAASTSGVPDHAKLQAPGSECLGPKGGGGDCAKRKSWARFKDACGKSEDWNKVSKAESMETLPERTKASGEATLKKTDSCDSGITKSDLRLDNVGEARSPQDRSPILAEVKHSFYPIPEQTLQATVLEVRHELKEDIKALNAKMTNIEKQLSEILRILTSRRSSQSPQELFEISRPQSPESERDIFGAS

## GTTCYCGKTIGIYWFGKYSCPTNRGYTGSCPYFLGICCYPVD (disulfide 4-37, 6-30, 20-38) [APETx4]
hKV10.1a (hEag1); 1.6 µM APETx4, 2 s pulse to 0 mV from −90 mV, ND96, pH 7.4, 18–22 °C, mean ± SEM, n = 3
  inhibition of the outward KV10.1 current: highest activity on KV10.1
hKV10.1a (hEag1); 1.6 µM APETx4, 2 s pulse to 0 mV from −90 mV, ND96, pH 7.4, 18–22 °C, mean ± SEM, n = 3, read-out: inhibition of the outward KV10.1 current
  inhibition at 1.6 µM: 76 ± 2%
hKV10.1a (hEag1); 1.6 µM APETx4, HK solution (96 mM Ko), control 15.3 ± 1.4, n = 3, NS
  slope factor of activation: 13.9 ± 0.8
hKV10.1a (hEag1); 1.6 µM APETx4, HK solution (96 mM Ko), control 41.3 ± 1.4 mV, n = 3
  half-maximal voltage V1/2 of activation: 50.9 ± 0.8 mV
hKV10.1a (hEag1); 1.6 µM APETx4, HK solution (96 mM Ko), n = 3, p < 0.05
  shift of V1/2: 9.6 ± 1.7 mV
hKV10.1a (hEag1); 1.6 µM APETx4, ND96 (2 mM Ko), Boltzmann fit, n = 3, p < 0.05
  shift of the activation curve towards more positive potentials: 17.7 ± 1.1 mV
hKV10.1a (hEag1); 1.6 µM APETx4, ND96 (2 mM Ko), control 20.7 ± 0.6 mV, n = 3, p < 0.05
  slope factor k of activation: 17.2 ± 0.3 mV
hKV10.1a (hEag1); 1.6 µM APETx4, ND96 (2 mM Ko), control 26.4 ± 0.9 mV, n = 3, p < 0.05
  half-maximal voltage V1/2 of activation: 44.1 ± 0.7 mV
hKV10.1a (hEag1); 1.6 µM APETx4, control 653 ± 42 ms, n = 3, p < 0.05
  rise time tr (10% to 90%): 1246 ± 96 ms
hKV10.1a (hEag1); 1.6 µM APETx4, exponential fit, control 376 ± 60 ms, n = 3, p < 0.05
  time constant τ of KV10.1 activation: 1209 ± 229 ms
hKV10.1a (hEag1); 1.6 μM APETx4, from the holding potential, non-normalized inhibited current (1-It/Ic)
  reduction of KV10.1 current, pulse to 65 mV: 29 ± 6%
hKV10.1a (hEag1); 1.6 µM APETx4, held at −90 mV for 10 min during addition, pulse to 0 mV, versus control current
  current reduction upon first stimulation after closed-state incubation: 85.2 ± 1.9%
hKV10.1a (hEag1); 1.6 μM APETx4, non-normalized inhibited current (1-It/Ic), read-out: inhibition of KV10.1 current, pulse −90 mV to 0 mV
  inhibition at 1.6 µM: 79 ± 4%
hKV10.1a (hEag1); 1.6 µM APETx4, one phase decay fit of I/Imax versus incubation time
  time constant τ of onset of inhibition (normalized current decrease): 97 ± 7 s
hKV10.1a (hEag1); 1.6 μM APETx4, reduced inhibition at more positive potentials, HK solution
  voltage dependence of current inhibition: a similar effect was observed
hKV10.1a (hEag1); 7 concentrations, logistic fit, 2 s pulse to 0 mV from −90 mV, ND96, mean ± SEM, n ≥ 3, read-out: IC50 for KV10.1 current inhibition
  IC50: 1.01 ± 0.01 µM
hKV10.1a (hEag1); HK solution (96 mM Ko), after toxin addition (1.6 µM)
  inward current at negative pulse potentials: no inward currents were observed
hKV10.1a (hEag1); [1]
  Hill coefficient: 3.8 ± 0.3 and ~ 4
  maximal current inhibition: 88.3 ± 0.9%
hKV10.1a (hEag1); two-pulse protocol, prepulse −140 to 30 mV, test pulse 30 mV, control or toxin condition
  inactivation properties of KV10.1: No apparent inactivation was observed
MDA-MB-435S
  antiproliferative effect: concentration-dependent antiproliferative effect
SH-SY5Y
  antiproliferative effect: concentration-dependent antiproliferative effect
hTERT RPE-1
  antiproliferative effect: concentration-dependent antiproliferative effect
